Measured values reported in paper PMC6150025, “Novel Mixed-Type Inhibitors of Protein Tyrosine Phosphatase 1B. Kinetic and Computational Studies” (Molecules : A Journal of Synthetic Chemistry and Natural …, 2017).

target: T1, PTP1B (Homo sapiens, UniProt P18031); assay: PTP1B enzymatic inhibition assay (pNPP substrate); format: biochemical; details: Table S1, 200 µM compound
T1 construct: encodes for PTP1B (residues 1–321); inferred from the pET28A vector, NdeI/BamHI cloning and Ni-agarose purification) (N); made in house; host or cells: E. coli BLR
T1 sequence (P18031 1-321): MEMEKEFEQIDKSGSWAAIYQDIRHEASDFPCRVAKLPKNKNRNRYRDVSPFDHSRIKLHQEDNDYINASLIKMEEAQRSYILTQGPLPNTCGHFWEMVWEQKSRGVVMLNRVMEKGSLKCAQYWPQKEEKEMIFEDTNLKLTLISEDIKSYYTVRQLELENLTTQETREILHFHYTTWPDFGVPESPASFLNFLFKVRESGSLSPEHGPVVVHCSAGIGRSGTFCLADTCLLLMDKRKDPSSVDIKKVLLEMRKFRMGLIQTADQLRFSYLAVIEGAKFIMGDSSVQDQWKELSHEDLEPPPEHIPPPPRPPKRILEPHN
Protocol: The PTP1B activity was measured based on the Goldstein method. The assay was performed with a final reaction volume of 500 µL in HEPES buffer (50 mM HEPES, 1mM DTT, 2 mM EDTA and 150 mM NaCl, pH 7.0), DMSO (10%) and p-nitrophenol phosphate (pNPP) as substrate (50 mM), the reaction was started with the PTP1B (1.5 µg/mL). After 30 min of incubation at 37 °C, the reaction was stopped by the addition of 500 µL of NaOH 5N reading the absorbance at 405 nm. The number of hydrolyzed moles of pNPP was determined using the molar extinction coefficient of the product pNP (18,500 M^−1 cm^−1).
Inhibition assays were performed under the above described conditions, adding to the reaction each one of the molecules at a final concentration of 200 µM. The concentration that inhibits 50% (IC50) of the PTP1B activity was determined through curves at different concentration of each compound, adjusting the data to the equation reported elsewhere. The inhibition type and constant were obtained by the measurement of the initial velocities of hydrolysis varying the substrate concentration in a range of 2–30 µM, in absence or presence of fixed concentrations of each inhibitor. For compound 1 the concentrations used were 3, 6, 10 and 20 µM; in the case of compound 2 were 2, 4, 6, 8, and 10 µM; and for compound 3 were 20, 50, 70 and 90 µM. The experimental data were analyzed through the Lineweaver-Burk plot using the software Sigma Plot V12.3 (Systat Software, Inc., San Jose, CA, USA).

SMILES	% Inhibition (200 µM)	inhibition at 200 µM
CSc1nc2cc(C(=O)O)ccc2n1C [1-methyl-2-(methylsulfanyl)-1H-benzimidazole-5-carboxylic acid]	33%	–
CSc1nc2cc(C(=O)N/N=C/c3ccc([N+](=O)[O-])o3)ccc2n1C [1-methyl-2-(methylsulfanyl)-N'-[(E)-(5-nitrofuran-2-yl)methylidene]-1H-benzimidazole-5-carbohydrazide]	34%	–
N#Cc1ccc(-c2c(NC(=O)NS(=O)(=O)c3ccccc3Cl)oc(-c3ccco3)c2C#N)cc1 [2-[({[(2-chlorophenyl)sulphonyl]amino}carbonyl)amino]-4-cyano-3-(4-cyanophenyl)-5-(2-furyl)furan]	64%	–
O=C(O)c1ccccc1N1CCOCC1 [2-morpholinobenzoic acid]	–	37%
CC1C(=NO)CC(c2ccc([N+](=O)[O-])cc2)NC1c1ccc([N+](=O)[O-])cc1 (stereo not shown) [3-methyl-2,6-bis(4-nitrophenyl)tetrahydropyridin-4(1H)-one oxime]	54%	–
O=C(O)C=CC(=O)Nc1ccc(N2CCCCCC2)c(NC(=O)C=CC(=O)O)c1 [4-{2-(1-azepanyl)-5-[(4-hydroxy-4-oxo-2-butenoyl)amino]anilino}-4-oxo-2-butenoic acid]	58%	–
Cn1c(SCCn2ccnc2)nc2cc(Cl)ccc21 [5-chloro-2-{[2-(1H-imidazol-1-yl)ethyl]sulfanyl}-1-methyl-1H-benzimidazole]	42%	–

Other lines, results leading:

% Inhibition (200 µM)	inhibition at 200 µM	SMILES
64%	–	O=C(CSc1nnc(-c2cc(OCC(F)(F)F)ccc2OCC(F)(F)F)o1)c1ccccc1 [2-({5-[2,5-di(2,2,2-trifluoroethoxy)phenyl]-1,3,4-oxadiazol-2-yl}thio)-1-phenylethan-1-one]
54%	–	Cn1c(SCC(=O)Nc2nccs2)nc2cc(Oc3cccc4ccccc34)c(Cl)cc21 [2-({6-chloro-1-methyl-5-[(naphthalen-1-yl)oxy]-1H-benzimidazol-2-yl}sulfanyl)-N-(1,3-thiazol-2-yl)acetamide]
63%	–	O=C(CSc1nc2cc(Oc3cccc4ccccc34)c(Cl)cc2[nH]1)Nc1ncc([N+](=O)[O-])s1 [2-({6-chloro-5-[(naphthalen-1-yl)oxy]-1H-benzimidazol-2-yl}sulfanyl)-N-(5-nitro-1,3-thiazol-2-yl)acetamide]
34%	–	O=C(O)c1csc(-c2ccc(C(F)(F)F)cc2)n1 [2-[4-(trifluoromethyl)phenyl]-1,3-thiazole-4-carboxylic acid]
63%	–	O=C(Nc1ccc(COc2ccccc2)cc1)Oc1ccccc1N1CCOCC1 [2-morpholinophenyl N-[4-(phenoxymethyl)phenyl]carbamate]
42%	–	Cc1ccc(S(=O)(=O)CCSc2n[nH]c(=O)n2-c2ccc(OCc3ccccc3)cc2)cc1 [4-[4-(benzyloxy)phenyl]-5-({2-[(4-methylphenyl)sulfonyl]ethyl}sulfanyl)-2,4-dihydro-3H-1,2,4-triazol-3-one]

same assay, conditions: Table S1, values marked a: tested at 100 µM due to solubility problems

SMILES	% Inhibition
CSc1nc2cc(C(=O)N/N=C/c3ccc([N+](=O)[O-])o3)ccc2[nH]1 [2-(methylsulfanyl)-N'-[(E)-(5-nitrofuran-2-yl)methylidene]-1H-benzimidazole-5-carbohydrazide]	50%
Cn1c(SCC(=O)Nc2nccs2)nc2cc(Cl)c(Oc3cccc4ccccc34)cc21 [2-({5-chloro-1-methyl-6-[(naphthalen-1-yl)oxy]-1H-benzimidazol-2-yl}sulfanyl)-N-(1,3-thiazol-2-yl)acetamide]	63%
Cc1nc2cc(C(=O)N/N=C/c3ccc([N+](=O)[O-])o3)ccc2[nH]1 [2-methyl-N'-[(E)-(5-nitrofuran-2-yl)methylidene]-1H-benzimidazole-5-carbohydrazide]	54%
